# Assay results from patent US20230168255A1, “UNBLENDING OF TRANSCRIPTIONAL CONDENSATES IN HUMAN REPEAT EXPANSION DISEASE” (Max-Planck-Gesellschaft zur Förderung der Wissenschaften …, priority 2020, published 2023).
# How the values were obtained:
# [1] = target: T1, Hoxd13 +7A IDR-Med1 IDR co-condensates (Homo sapiens, UniProt P35453, DUP65-71); assay: in vitro droplet assay, compound treatment of Hoxd13 IDR-Med1 IDR co-condensates; format: biochemical; settings: purified Hoxd13 +7A IDR-mCherry mixed with MED1 IDR-GFP; FIG. 3G-J, FIG. 8
# T1 construct: His tag (from pET45b(+); purified on a His column); made in house; host or cells: E. coli BL21(DE3)
# T1 sequence (P35453 with tags, fused parts or gaps DUP65-71): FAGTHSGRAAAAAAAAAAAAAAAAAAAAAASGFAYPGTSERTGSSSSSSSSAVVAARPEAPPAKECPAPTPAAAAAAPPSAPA
# Description: (§1) For image analysis, droplets were first automatically thresholded in either the mEGFP or mCherry channel using Zen Blue (Version 3.0), and then filtered by size, pixel intensity, and pixel deviation. Mean fluorescence intensities, area, and diameter of these primary regions were measured on both channels. For quantification and data visualization (FIG. 1J, 2H, 3B-E, 3H-J, 6F, 6H, 60, 6Q), raw values for diameter, mean intensity, or area were plotted as indicated in figure legends using R-Studio and the Directlabels package.
# (§2) For in vitro droplet formation, recombinant mCherry or mEGFP fusion proteins were measured for concentration, and then diluted or mixed to suitable final concentrations in storage buffer. For microscopy, these solutions were further diluted 1:2 in either 20% or 10% PEG-8000 in deionized water (w/v). 10 μL of this suspension was pipetted onto chambered coverslips, and immediately imaged using a LSM880 confocal microscope equipped with a 63×1.40 oil DIC objective and AiryScan detector. All images were acquired from within the solution interface, and performed before droplets settled onto the bottom of the coverslip, as described in (Sabari et al., 2018). For droplet assays using preformed GFP-Med1 condensates (FIG. 3E-F), GFPMed1 droplets were allowed to form for 30 minutes at room temperature in the presence of 10% PEG-8000, before proceeding with co-condensation assays. For compound treatments of cocondensates (FIG. 3G-J), small molecules [ATP (Jena Bioscience, NU-1010), Mitoxantrone dihydrochloride (Sigma M6545), (±)-α-lipoic acid (Sigma 62320), and lipoamide, (Medchemexpress HY-B1142)] were directly diluted into droplet mixtures with or without vehicle (DMSO, Sigma D2650) to the desired final concentrations.
# [2] = tested on: Hoxd13 puncta in limb bud cells; assay: 1,6-hexanediol treatment of limb bud cells, Hoxd13 immunofluorescence; format: cell-based, mouse; settings: 6% for 1 min; limb bud cells expressing +7A Hoxd13 (spdh) versus wt
# Description: 1,6-hexanediol treatment: Isolated limb bud cells attached to fibronectin coated glass coverslips were treated with 6% or 0% hexanediol (Sigma, 240117) in 1 mL cell culture media for 1 minute at 37° C. After treatment, cells were washed with 1 mL of PBS, and immediately fixed in 4% paraformaldehyde in PBS for 10 min. Fixed cells were washed and then stored at 4° C. until processing for immunofluorescence and microscopy.
# Isolated limb bud cells, Kelly cells, and SH-SY5Y cells attached to coated glass coverslips were fixed in 4% paraformaldehyde (PFA) (Sigma-Aldrich, P6148) in PBS for 10 min and stored at 4° C. in PBS or processed immediately. Cells were permeabilized in 0.1% Triton X-100 (Thermo Scientific, 85111) in PBS for 10 min at RT. […]
# Hoxd13 puncta detected in fixed cell immunofluorescence (FIG. 4C-D) were analyzed using a similar workflow described above. Nuclear regions were automatically detected in the Zen Blue (Zeiss) software package using the DAPI counterstain signal. Puncta were segmented on morphology, and then filtered based on fluorescence intensity and circularity. […] Values for nuclear area, Hoxd13 puncta area, Hoxd13 puncta mean fluorescence intensity, and Hoxd13 puncta count were measured for 120 wild type cells, 143 1-6 HD treated wild type cells, 63 spdh cells, and 62 1-6 HD treated spdh cells.
# [3] = tested on: Hoxd13 +7A IDR-Med1 IDR co-condensates; assay: in vitro droplet assay, compound treatment of Hoxd13 IDR-Med1 IDR co-condensates; format: biochemical; settings: summary statement; TFs containing disease-mutations
# Description: as §1, §2
Molecule,reblending of co-condensates (ratio of GFP and mCherry fluorescence in HOXD13 IDR-mCherry containing droplets) [1],"sensitivity of Hoxd13 puncta to 1,6-HD [2]",composition of heterotypic condensates formed by Cluster 1 TFs with transcriptional co-activators (co-activator and TF content) [3]
"OCCCCCCO [1,6-HD, 1,6-hexanediol]",,considerably reduced sensitivity,
"Nc1ncnc2c1ncn2[C@@H]1O[C@H](COP(=O)(O)OP(=O)(O)NP(=O)(O)O)[C@@H](O)[C@H]1O [APPNP, adenosine-5′-[(β,γ)-imido]triphosphate]",capable of reblending,,effective
adenosine tri-phosphate [ATP],reblended Hoxd13 +7A IDR-Med1 IDR co-condensates in a dose dependent manner,,revert the compositional alteration

# Continued, in another order:
reblending of co-condensates (ratio of GFP and mCherry fluorescence in HOXD13 IDR-mCherry containing droplets) [1],Molecule,"sensitivity of Hoxd13 puncta to 1,6-HD [2]",composition of heterotypic condensates formed by Cluster 1 TFs with transcriptional co-activators (co-activator and TF content) [3]
failed to reblend,"O=C(O)CCCCC1CCSS1 (racemic) [lipoic acid, (±)-α-lipoic acid]",,
failed to reblend,NC(=O)CCCCC1CCSS1 (stereo not shown) [lipoamide],,
